# Assay results as given in paper PMC6134108, “Nystatin-like Pseudonocardia polyene B1, a novel disaccharide-containing antifungal heptaene antibiotic” (Scientific Reports, 2018).
# What was measured:
# [1] = tested on: Cryptococcus humicola ATCC9949; test: MIC assay (CLSI M27-A3 microbroth); assay type: cell-based; conditions: Vanrija humicola; Cryptococcus humicola ATCC9949; read-out: Antifungal activity (MIC)
# Description: (§1) For the minimum inhibitory concentration (MIC) assay, strains for testing were grown on YPD agar for 24 hours, and subcultured to YPD broth medium. Whole strains were incubated for 18 hours at 35 °C by shaking incubator. Grown organisms were diluted with fresh RPMI 1640 medium to appropriate concentration, 5 × 10^4 CFU/ml. Cultures were inoculated to 96-well plates containing antifungal medium. All compounds were dissolved using Dimethyl Sulfoxide (DMSO) and diluted broth media. Fungal diluted solution and antifungal medium were mixed at 1:1 ratio so total 200 ul mixed medium was made. Whole experiment plates were incubated for 24 hours at 37 °C. […] The MICs were calculated in duplicate using the Clinical and Laboratory Standards Institute M27-A3 microbroth methodology. Hemolysis experiments and the 3-(4,5-dimethylthiazol-2-yl)-5-(3-carboxymethoxyphenyl)-2-(4-sulfophenyl)-2H-tetrazolium (MTS) cell proliferation colorimetric assay were performed following known procedures[12],[27],[29].
# C. albicans SL38 = test: MIC assay (CLSI M27-A3 microbroth); assay type: cell-based; conditions: Candida albicans; C. albicans SL38; no visible growth; read-out: Antifungal activity (MIC)
# Description: as §1
# [2] = tested on: Saccharomyces cerevisiae ATCC9035; test: MIC assay (CLSI M27-A3 microbroth); assay type: cell-based; conditions: Saccharomyces cerevisiae ATCC9035; read-out: Antifungal activity (MIC)
# Description: as §1
# C. albicans SL28 = test: MIC assay (CLSI M27-A3 microbroth); assay type: cell-based; conditions: Candida albicans; C. albicans SL28; no visible growth; read-out: Antifungal activity (MIC)
# Description: as §1
# [3] = tested on: Candida albicans KCTC7965; test: MIC assay (CLSI M27-A3 microbroth); assay type: cell-based; conditions: Candida albicans KCTC7965; no visible growth; read-out: Antifungal activity (MIC)
# Description: as §1
# C. albicans SC5314 = test: MIC assay (CLSI M27-A3 microbroth); assay type: cell-based; conditions: Candida albicans; C. albicans SC5314; no visible growth; read-out: Antifungal activity (MIC)
# Description: as §1
# [4] = 1 mg/kg dose
# in vivo = conditions: mouse, 1 mg/kg
# From the text: Supplement 41598_2018_31801_MOESM1_ESM.docx, table 4: Table S4.
# ICR mice = test: Single intravenous dose acute toxicity; assay type: in vivo
# Description: All in vivo mouse toxicity studies were conducted according to Testing Guidelines for Safety Evaluation of Drugs[32] and the Organisation for Economic Co-operation and Development (OECD) Guideline[33]. Male and female ICR mice were used 7 weeks old for the toxicity test. […] The single doses were 1, 2.5, and 5 mg per kg body weight.
compound,measurement,setting,value
"C[C@@H]1[C@H](O)[C@@H](C)/C=C/C=C/C=C/C=C/C=C/C=C/C=C/[C@H](O[C@@H]2O[C@H](C)[C@@H](O)[C@H](N)[C@@H]2O)C[C@@H]2O[C@](O)(C[C@@H](O)C[C@@H](O)[C@H](O)CC[C@@H](O)C[C@@H](O)CC(=O)O[C@H]1C)C[C@H](O)[C@H]2C(=O)O [Amphotericin B, amphotericin B]",MIC,[1],0.5 µg/mL
same,MIC,C. albicans SL38,1 µg/mL
same,MIC,[2],1 µg/mL
same,MIC,C. albicans SL28,1 µg/mL
same,MIC,[3],1 µg/mL
same,MIC,C. albicans SC5314,1 µg/mL
same,lethality in rats,[4],killed all the tested rats
same,AUC(0-inf),in vivo,29300 ng·h/mL
same,AUC(0-t),in vivo,22200 ng·h/mL
same,MRT inf,in vivo,5.5 h
same,Vd,in vivo,0.2 L/kg
same,clearance,in vivo,0.5 mL/min/kg
same,half-life,in vivo,3.4 h
same,Deaths on day after start of treatment,"ICR mice; female, single iv 1mg/kg, day 0",0
same,Deaths on day after start of treatment,"ICR mice; female, single iv 1mg/kg, day 1",0
same,Deaths on day after start of treatment,"ICR mice; female, single iv 1mg/kg, day 2",1
same,Deaths on day after start of treatment,"ICR mice; female, single iv 1mg/kg, day 3",0
same,Deaths on day after start of treatment,"ICR mice; female, single iv 1mg/kg, day 4",0
same,Deaths on day after start of treatment,"ICR mice; female, single iv 1mg/kg, day 5",0
same,Deaths on day after start of treatment,"ICR mice; female, single iv 1mg/kg, day 6",0
same,Deaths on day after start of treatment,"ICR mice; female, single iv 1mg/kg, day 7",0
same,Deaths on day after start of treatment,"ICR mice; female, single iv 2.5mg/kg, day 0",0
same,Deaths on day after start of treatment,"ICR mice; female, single iv 2.5mg/kg, day 1",1
same,Deaths on day after start of treatment,"ICR mice; female, single iv 2.5mg/kg, day 2",3
same,Deaths on day after start of treatment,"ICR mice; female, single iv 2.5mg/kg, day 3",0
same,Deaths on day after start of treatment,"ICR mice; female, single iv 2.5mg/kg, day 4",0
same,Deaths on day after start of treatment,"ICR mice; female, single iv 2.5mg/kg, day 5",0
same,Deaths on day after start of treatment,"ICR mice; female, single iv 2.5mg/kg, day 6",1
same,Deaths on day after start of treatment,"ICR mice; female, single iv 2.5mg/kg, day 7",0
same,Deaths on day after start of treatment,"ICR mice; female, single iv 5mg/kg, day 0",4
same,Deaths on day after start of treatment,"ICR mice; female, single iv 5mg/kg, day 1",0
same,Deaths on day after start of treatment,"ICR mice; female, single iv 5mg/kg, day 2",1
same,Deaths on day after start of treatment,"ICR mice; female, single iv 5mg/kg, day 3",0
same,Deaths on day after start of treatment,"ICR mice; female, single iv 5mg/kg, day 4",0
same,Deaths on day after start of treatment,"ICR mice; female, single iv 5mg/kg, day 5",0
same,Deaths on day after start of treatment,"ICR mice; female, single iv 5mg/kg, day 6",0
same,Deaths on day after start of treatment,"ICR mice; female, single iv 5mg/kg, day 7",0
same,Deaths on day after start of treatment,"ICR mice; male, single iv 1mg/kg, day 0",0
same,Deaths on day after start of treatment,"ICR mice; male, single iv 1mg/kg, day 1",0
same,Deaths on day after start of treatment,"ICR mice; male, single iv 1mg/kg, day 2",0
same,Deaths on day after start of treatment,"ICR mice; male, single iv 1mg/kg, day 3",0
same,Deaths on day after start of treatment,"ICR mice; male, single iv 1mg/kg, day 4",0
same,Deaths on day after start of treatment,"ICR mice; male, single iv 1mg/kg, day 5",0
same,Deaths on day after start of treatment,"ICR mice; male, single iv 1mg/kg, day 6",0
same,Deaths on day after start of treatment,"ICR mice; male, single iv 1mg/kg, day 7",0
same,Deaths on day after start of treatment,"ICR mice; male, single iv 2.5mg/kg, day 0",0
same,Deaths on day after start of treatment,"ICR mice; male, single iv 2.5mg/kg, day 1",0
same,Deaths on day after start of treatment,"ICR mice; male, single iv 2.5mg/kg, day 2",2
same,Deaths on day after start of treatment,"ICR mice; male, single iv 2.5mg/kg, day 3",0
same,Deaths on day after start of treatment,"ICR mice; male, single iv 2.5mg/kg, day 4",0
same,Deaths on day after start of treatment,"ICR mice; male, single iv 2.5mg/kg, day 5",0
